Legend:
Fusarium proliferatum [1] = assay: Treatment of wounded bananas inoculated with Fusarium proliferatum (mould growth); assay type: in vivo; settings: bananas 20° C.
Protocol: Four organic, unripe (green) bananas were used per treatment. The peel of each banana was wounded thrice using a cork borer according to the method described by de Lapeyre de Bellaire and Dubois (1987). Subsequently, each wound was inoculated with 15 μl of a Fusarium proliferatum suspension containing 1×10^5 of spores/ml. […] In addition, the antifungal compositions comprised 1.00% (w/w) methylhydroxyethylcellulose (MHEC), 0.40% (w/w) xanthan gum, 0.20% (w/w) anti-foaming agent, 0.30% (w/w) citric acid, 0.39% (w/w) lactic acid and 0.11% (w/w) potassium sorbate. The pH of the composition was 4.0. […] The treated, unripe bananas were incubated in a closed box in the dark at 20° C. and a relative air humidity of 95%, which was obtained in the presence of a saturated Na2HPO4 aqueous solution. During the first 20 days of incubation, a ripe (yellow) banana was included in the closed box to elevate the ethylene gas level and thus induce ripening of the treated, unripe bananas. […]
The expected antifungal activity (E in %) of the combined antifungal composition comprising both active ingredients was calculated according to the Colby equation (Colby, 1967): […]
wherein X and Y are the observed antifungal activities (in %) of the individual active ingredients X and Y, respectively. If the observed antifungal activity (O in %) of the combination exceeds the expected antifungal activity (E in %) of the combination and the synergy factor O/E is thus >1.0, the combined application of the active ingredients leads to a synergistic antifungal effect.

Botrytis cinerea [2] = assay: Treatment of wounded strawberries inoculated with Botrytis cinerea (mould growth); assay type: in vivo; settings: 250 ppm natamycin; for Number of moulded wounds/total number of 12 wounds (title: Number of moulded strawberries): strawberries 20° C.; for Observed antifungal activity O: strawberries
Protocol: Twelve fresh, organic strawberries were used per treatment. Each strawberry was wounded with a 0.5 mm long cut and each wound was inoculated with 10 μl of a Botrytis cinerea suspension containing 1×10^5 of spores/ml. […] The antifungal compositions also comprised 1.00% (w/w) methylhydroxyethylcellulose (MHEC), 0.40% (w/w) xanthan gum, 0.20% (w/w) anti-foaming agent, 0.30% (w/w) citric acid, 0.39% (w/w) lactic acid and 0.11% (w/w) potassium sorbate. The pH of the composition was 4.0. A composition without natamycin or prothioconazole was used as control. The treated strawberries were incubated in a closed box in the dark at 20° C. for 3 days.
After 2 and 3 days of incubation, the mould growth on the strawberries was assessed in a twofold manner: (i) the number of moulded strawberries per total of 12 strawberries was counted; and (ii) the antifungal activity (in %) of the individual and combined active ingredients was determined by calculating the reduction in mould growth observed on the strawberries treated with the antifungal composition in comparison to the mould growth on the strawberries treated with the control composition according to the Colby method described in Example 4 (Colby, 1967).

Penicillium italicum = assay: Treatment of wounded mandarins inoculated with Penicillium italicum (mould growth); assay type: in vivo
Protocol: Ten fresh, organic mandarins were used per treatment. The peel of each mandarin was wounded once using a cork borer according to the method described by de Lapeyre de Bellaire and Dubois (1987). Subsequently, each wound was inoculated with 10 μl of a Penicillium italicum suspension containing 1×10^4 of spores/ml. […] The pH of the composition was 4.0. […]

Botrytis cinerea [3] = assay: In vitro antifungal activity, 96-well microtiter plates; assay type: cell-based; settings: in vitro 25° C., natamycin 1.25 ppm
Protocol: The following compositions were tested: […] Subsequently, 100 μl of a Botrytis cinerea suspension prepared in PCB medium was used to inoculated each well with 2.5×10^3 spores/ml. […] The expected antifungal activity (E in %) of the active ingredient combination was calculated according to the Colby equation (Colby, 1967): […] wherein X and Y are the observed antifungal activities (in %) of the individual active ingredients X and Y, respectively.

Fusarium proliferatum [4] = assay: as above; assay type: cell-based; settings: in vitro 25° C.; 10 days; natamycin 2.5 ppm, prothioconazole 0.5 ppm or both
Protocol: Subsequently, 100 μl of a Botrytis cinerea suspension prepared in PCB medium was used to inoculated each well with 2.5×10^3 spores/ml.
, the in vitro antifungal activity (%) of the individual active ingredients was assessed by calculating the reduction in mould growth observed in the presence of the active ingredient in comparison to the mould growth observed in the absence of the active ingredient. The expected antifungal activity (E in %) of the active ingredient combination was calculated according to the Colby equation (Colby, 1967): […]
The experiment was conducted as described in Example 13, except for the fact that the following compositions were tested:
Furthermore, Fusarium proliferatum was used for inoculation. The antifungal activity (in %) of the individual and combined active ingredients was determined according to the method described in Example 13.

OC(Cc1ccccc1Cl)(Cn1nc[nH]c1=S)C1(Cl)CC1 (stereo not shown) [Prothioconazole, prothioconazole]
Number of moulded wounds/total number of 12 wounds (Fusarium proliferatum [1]; 250 ppm natamycin, 100 ppm prothioconazole or both, Day 27): 11/12 | Number of moulded wounds/total number of 12 wounds (Fusarium proliferatum [1]; 250 ppm natamycin, 100 ppm prothioconazole or both, Day 27, listed as prothioconazole): 11 | Number of moulded wounds/total number of 12 wounds (Fusarium proliferatum [1]; 250 ppm natamycin, 100 ppm prothioconazole or both, Day 28 and 29): 12/12 | Number of moulded wounds/total number of 12 wounds (Fusarium proliferatum [1]; 250 ppm natamycin, 100 ppm prothioconazole or both, Day 28 and 29, listed as prothioconazole): 12 | Number of moulded wounds/total number of 12 wounds (Fusarium proliferatum [1]; 500 ppm natamycin, 250 ppm prothioconazole or both, Day 27, 28 and 29): 10/12 | Number of moulded wounds/total number of 12 wounds (Fusarium proliferatum [1]; 500 ppm natamycin, 250 ppm prothioconazole or both, Day 27, 28 and 29, listed as prothioconazole): 10 | Number of moulded wounds/total number of 12 wounds (title: Number of moulded strawberries) (Botrytis cinerea [2]; 500 ppm prothioconazole or both, Day 2): 12/12 | Number of moulded wounds/total number of 12 wounds (title: Number of moulded strawberries) (Botrytis cinerea [2]; 500 ppm prothioconazole or both, Day 2, listed as prothioconazole): 12 | Number of moulded wounds/total number of 12 wounds (title: Number of moulded strawberries) (Botrytis cinerea [2]; 500 ppm prothioconazole or both, Day 3): 12/12 | Number of moulded wounds/total number of 12 wounds (title: Number of moulded strawberries) (Botrytis cinerea [2]; 500 ppm prothioconazole or both, Day 3, listed as prothioconazole): 12 | Observed antifungal activity O (Botrytis cinerea [2]; 500 ppm prothioconazole (row prints 50 ppm) or both, 3 days): 21% | Observed antifungal activity O (Botrytis cinerea [2]; 500 ppm prothioconazole or both, 2 days): 14% | Observed antifungal activity O (Penicillium italicum; 250 ppm natamycin, 150 ppm prothioconazole or both, 13 days): 86% | Observed antifungal activity O (Penicillium italicum; 250 ppm natamycin, 150 ppm prothioconazole or both, 16 days): 82% | Observed antifungal activity O (Penicillium italicum; 250 ppm natamycin, 150 ppm prothioconazole or both, 21 days): 71% | Observed antifungal activity O (Penicillium italicum; 250 ppm natamycin, 150 ppm prothioconazole or both, 26 days): 63% | Observed antifungal activity O (Penicillium italicum; 250 ppm natamycin, 150 ppm prothioconazole or both, 29 days): 40% | Observed antifungal activity O (Penicillium italicum; 250 ppm natamycin, 150 ppm prothioconazole or both, 34 days): 27% | Observed antifungal activity O (Penicillium italicum; 500 ppm natamycin, 600 ppm prothioconazole or both, 25 days): 91% | Observed antifungal activity O (Penicillium italicum; 500 ppm natamycin, 600 ppm prothioconazole or both, 28 days): 83% | Observed antifungal activity O (Penicillium italicum; 500 ppm natamycin, 600 ppm prothioconazole or both, 31 days): 71% | Observed antifungal activity O (Penicillium italicum; 500 ppm natamycin, 600 ppm prothioconazole or both, 34 days): 63% | Observed antifungal activity O (Botrytis cinerea [3]; 5 days, propiconazole 0.50 ppm, prothioconazole 0.13 ppm, or natamycin 1.25 ppm with either): 0% | Observed antifungal activity O (Botrytis cinerea [3]; 10 days, prothioconazole 0.13 ppm or both): 50% | Observed antifungal activity O (Fusarium proliferatum [4]): 50%
